# Test results as given in US20240367098A1, “CARBON DIOXIDE ABSORBENT, METHOD FOR RECOVERING CARBON DIOXIDE, AND APPARATUS FOR SEPARATING AND RECOVERING CARBON DIOXIDE” (MITSUBISHI GAS CHEMICAL COMPANY, INC., priority 2021, published 2024).
# What was measured:
# Type in all cases: physicochemical
# [1] = Acid dissociation constant (pKa) of amine compound (acid-base titration); settings: 25±2° C., in purified water
# Procedure: The acid dissociation constant of the amine compound was determined by the following method. • (1) Dissolving 0.2 g of the amine compound in 30 mL of the purified water. • (2) Calculating the acid dissociation constant (pKa) by titrating the solution obtained in the above (1) with the 0.1 N perchloric acid-acetic acid solution using the automatic potentiometric titrator (AT-610 produced by Kyoto Electronics Manufacturing Co., Ltd.).
# Still, let the temperature at the time of measurement be 25±2° C.
# [2] = Amine value of amine compound (JIS K7237-1995 titration); settings: 0.1 N perchloric acid-acetic acid titration
# Procedure: The amine value was measured by the following measurement method in accordance with JIS K7237-1995. • (1) Dissolving 0.1 g of the amine compound in 20 mL of the acetic acid. • (2) Calculating the amine value by titrating the solution obtained in the above (1) with the 0.1 N perchloric acid-acetic acid solution using the automatic potentiometric titrator (AT-610 produced by Kyoto Electronics Manufacturing Co., Ltd.).
# [3] = Maximum carbon dioxide (CO2) release temperature of amine compound (DSC after CO2 absorption from air); settings: amine compound stood 24 hours in air at 23° C., 50% RH; DSC 23 to 250° C., 10° C./minute, nitrogen
# Procedure: A carbon dioxide concentration meter and a petri dish were placed inside an openable desiccator (Internal Dimension: 370 mm×260 mm×272 mm). […] An initial concentration of carbon dioxide was adjusted to about 400 ppm. Then, the amine compound was removed from the desiccator to obtain the amine compound with carbon dioxide absorbed. The DSC measurement was performed on the amine compound with carbon dioxide absorbed as follows, to measure the maximum carbon dioxide release temperature of the amine compound. First, the differential scanning calorimetry was performed on the amine compound using the differential thermogravimetric analyzer (Product Name: DTG-60 produced by Shimadzu Corporation) under the conditions of 23 to 250° C. of a measurement temperature range, 10° C./minute of the heating rate, and the nitrogen atmosphere. From the DSC curve obtained thereby, the temperature at which the endothermic amount associated with the desorption of carbon dioxide reached the maximum was calculated, and the temperature thereof was used as the maximum carbon dioxide release temperature of the amine compound.
# [4] = Maximum endothermic temperature of amine compound (DSC); settings: DSC 23 to 350° C., 10° C./minute, nitrogen; volatilization of the amine compound
# Procedure: DSC measurements were performed on the amine compounds to measure the maximum endothermic temperature of the amine compounds as follows. First, a differential scanning calorimetry was performed on the amine compounds using a differential thermogravimetric analyzer (Product Name: DTG-60 produced by Shimadzu Corporation) under conditions of 23 to 350° C. of a measurement temperature range, 10° C./minute of a heating rate, and a nitrogen atmosphere. From the DSC curve obtained thereby, the temperature at which the endothermic amount associated with the volatilization of the amine compound reached the maximum was calculated, and the temperature thereof was used as the maximum endothermic temperature of the amine compound.
pKa [1],Amine Value [2] [mgKOH/g],Maximum CO2 Release Temperature [3] [°C],Maximum Endothermic Temperature [4] [°C],Compound
9.5,–,–,–,"NCCCNCC1CCCC(CNCCCN)C1 (stereo not shown) [1,3-BAC-BisAP]"
9.8,890,102.3,298.2,"NCCCN(CCCN)CC1CCCC(CN(CCCN)CCCN)C1 (stereo not shown) [1,3-BAC-tetraAP]"
10.1,1154,81.9,118.4,"NCCN1CCNCC1 [AEP, 2-aminoethylpiperazine]"
10.3,–,–,–,"NCCNCCNCCN [TETA, triethylenetetramine]"
